For data set [1], the system named is MCF-7. Put plainly: cells. The conditions noted are these: Homo sapiens, MCF7, 72 h, read-out: IC50 (μM) MCF-7, MCF-7 breast carcinoma cells; mean of three independent experiments; 72 h incubation.
Experimental: (§1) The results were used to plot a dose–response curve, from which the concentrations of the tested samples required to kill half of the cell population (IC50) were determined. In addition, cytotoxic activities were expressed as the mean IC50 calculated from three independent experiments.
(§2) The cytotoxic potentials of the newly synthesized compounds was carried out at the Regional Center for Mycology and Biotechnology at Al-Azhar University, Cairo, Egypt. Cells were purchased from the Egyptian Holding Company for Biological Products and Vaccines (VACSERA, Giza, Egypt) and kept in a tissue culture unit. Cells were grown in Roswell Park Memorial Institute (RPMI)-1640 medium supplemented with 10% heat-inactivated fetal bovine serum (FBS), 50 units/mL penicillin, and 50 mg/mL streptomycin, and maintained in a humidified atmosphere containing 5% CO2 [11, 25]. Cells were maintained as monolayer cultures using serial subculture. Cell culture reagents were obtained from Lonza (Basel, Switzerland). The anticancer activities of the rest of the compounds were evaluated in MCF-7 (breast cancer) cells. In addition, the sulforhodamine B (SRB) assay method, as described previously in [39, 40], was used to determine cytotoxicity. Exponentially growing cells were collected using 0.25% trypsin–EDTA and seeded in 96-well plates at 1000–2000 cells/well in RBMI-1640 supplemented medium. After 24 h, cells were incubated for 72 h with various concentrations of the compounds tested. Following 72 h of incubation, the cells were fixed with 10% trichloroacetic acid for 1 h at 4 °C. Wells were stained for 10 min at room temperature with 0.4% sulforhodamine B (SRBC) dissolved in 1% acetic acid. Plates were air-dried for 24 h, and the dye was solubilized with Tris–HCl for 5 min on a shaker at 1600 rpm. The optical density (OD) of each well was measured spectrophotometrically at 564 nm using an ELISA microplate reader (ChroMate-4300, Palm City, FL, USA). IC50 values were calculated using a Boltzmann sigmoidal concentration–response curve using non-linear regression fitting models (Graph Pad, Prism Version 9, GraphPad Software, San Diego, CA, USA).
The test system of data set [2] is MCF-7. The conditions noted are these: for IC50: read-out: IC50 (μM) MCF-7, MCF-7 breast carcinoma cells, mean of three independent experiments, 72 h incubation.
Experimental: as §1, §2
Another data set can be described thus: in vitro. Conditions: rhesus monkey.

Consider 13 molecules from publication PMC9320749, “Synthesis, Molecular Docking Study, and Cytotoxic Activity against MCF Cells of New Thiazole–Thiophene Scaffolds” (Molecules, 2022).

Where two headings read alike, the source gives them in different places. Where only a bound is given, the exact number is not on record here.

`C/C(=N\N=c1/scc(-c2ccc(Cl)cc2)n1N)c1cccs1` [11c] registered a melting point of 180 to 182 °C. Further, the IC50 in the data set on MCF-7 [1] was greater than 38 µM. The IC50 in the data set with MCF-7 [2] was found to be 38.2 ± 1.4 µM.
For `C/C(=N\N=c1/sc(/N=N/c2ccc(Cl)cc2)c(C)n1N)c1cccs1` [4c], the melting point fell in the range of 205 to 207 °C. For the same molecule, in the data set on MCF-7 [1], the IC50 is 19.7 ± 1.3 µM.
On to `N.N.[Cl][Pt][Cl]` [Cisplatin, cisplatin, reference compound], for which the IC50 in the data set with MCF-7 [2] came to 13.3 ± 0.61 µM.
For the molecule `C/C(=N\N=c1/scc(-c2ccc([N+](=O)[O-])cc2)n1N)c1cccs1` [11d], the melting point was in the range of 194 to 196 °C. The IC50 in the data set on MCF-7 [1] was greater than 38 µM. In addition, the IC50 with MCF-7 [2] is 54.8 ± 1.6 µM.
Consider `CC(=O)c1sc(=NN=C(C)c2cccs2)n(N)c1C` [13a, 1-[3-Amino-4-methyl-2-((1-(thiophen-2-yl)ethylidene)hydrazineylidene]-2,3-dihydrothiazol-5-yl)ethan-1-one], for which the IC50 with MCF-7 [1] was 11.5 ± 0.8 µM. In “in vitro”, this molecule yielded a CC50 at 72 h of 163 ± 19.1 µM. In addition, the “SI Values (CC50/IC50)” value in the data set with MCF-7 [2] is recorded as 14.14.
The matching figures for `CCOC(=O)c1s/c(=N\N=C(/C)c2cccs2)n(N)c1C` [13b]: 16.3 ± 1.4 µM, 135 ± 9.58 µM and 8.29.
`C/C(=N\N=c1/scc(-c2ccccc2)n1N)c1cccs1` [11a] yielded a melting point of 166 to 168 °C. Further, the IC50 with MCF-7 [1] amounted to 21 ± 0.7 µM.
For `C/C(=N\N=c1/scc(-c2ccc(C)cc2)n1N)c1cccs1` [11b], in the data set on MCF-7 [1], the IC50 was determined as 17.9 ± 0.8 µM. The CC50 at 72 h in the data set “in vitro” turned out to be 231 ± 25 µM. Further, in the data set with MCF-7 [2], the “SI Values (CC50/IC50)” value came to 12.93.
`CC(=NN=C1SC(=NNc2ccc(Cl)cc2)C(=O)N1N)c1cccs1` [8b, 3-Amino-5-(2-(4-chlorophenyl)hydrazineylidene)-2-[(1-(thiophen-2-yl)ethylidene) hydrazineylidene]thiazolidin-4-one] showed a melting point of 177 to 179 °C. Moreover, the half-inhibitory concentration (IC50) with MCF-7 [1] was determined as 23.7 ± 1.6 µM.
Regarding `C/C(=N\N=c1/sc(/N=N/c2ccc(C)cc2)c(C)n1N)c1cccs1` [4b], the IC50 in the data set on MCF-7 [1] was found to be 10.2 ± 0.8 µM. The CC50 at 72 h in “in vitro” came to 176 ± 18.2 µM.
For `C/C(=N\N=c1/sc(/N=N/c2ccccc2)c(C)n1N)c1cccs1` [4a], in the data set on MCF-7 [1], the IC50 amounted to 16.3 ± 1 µM. The CC50 at 72 h in the data set “in vitro” was 183 ± 21.3 µM. Moreover, the “SI Values (CC50/IC50)” value with MCF-7 [2] worked out at 11.23.
`C/C(=N\N=c1/sc(/N=N/c2ccc(Cl)cc2Cl)c(C)n1N)c1cccs1` [4d] yielded a melting point of 227 to 229 °C. In addition, the IC50 in the data set with MCF-7 [1] is 19.8 ± 0.9 µM.
Regarding `CC(=NN=C1SC(=NNc2ccc(C)cc2)C(=O)N1N)c1cccs1` [8a, 3-Amino-2-[(1-(thiophen-2-yl)ethylidene)hydrazineylidene]-5-(2-(p-tolyl)hydrazineylidene) thiazolidin-4-one], the IC50 with MCF-7 [1] worked out at 13.6 ± 0.9 µM. The CC50 at 72 h in “in vitro” was 149 ± 15.9 µM. Further, the “SI Values (CC50/IC50)” value in the data set with MCF-7 [2] was found to be 10.99.

The IC50 is the midpoint of a concentration-inhibition curve. As usually defined, the melting point is the temperature, or range, at which the solid turns liquid.
